Data taken from EP1242382B1, “TRICYCLIC PROTEIN KINASE INHIBITORS” (Wyeth, priority 1999, dated 2001).

Key:
HT-29 cells = experiment: Cell proliferation test procedure, HT-29 cells (MTS); format: cell-based; settings: Homo sapiens, read-out: HT-29 prolif %Inh
Protocol: HT-29 cells: Compound effectiveness at inhibiting cell proliferation on plastic is performed in a 96-well format by plating 5000 cells per well in appropriate medium on day one, followed by compound addition on day 2 in serial two-fold dilutions. On day five, compound is washed away and medium containing MTS reagent (Promega) is added. Relative cell number is determined by reading the absorbance at 490nm of a dye produced by an NAD-dependent cellular enzymatic reaction.

[1] = test system: Rat2 fibroblasts stably transformed with v-Src/Hu c-Src fusion gene; experiment: Anchorage independent Src-transformed fibroblast proliferation test procedure; format: cell-based; settings: Rattus norvegicus, read-out: Src TF prolif %Inh
Source text: Anchorage Independent Src-transformed Fibroblast Proliferation Test Procedure: Rat2 fibroblasts stably transformed with a plasmid containing a CMV promotor controlled v-Src/Hu c-Src fusion gene in which the catalytic domain of human c-Src is inserted in place of the v-Src catalytic domain in the v-Src gene are used for the measurement of src dependent suspension growth.

Raf-1 (c-Raf) = biological target: T1, Raf-1 (c-Raf) (Homo sapiens, UniProt P04049); experiment: Raf1 kinase cascade assay procedure; format: biochemical
T1 construct: Sf9 insect cell lysate containing full length 6his-tagged recombinant human c-Raf; host or cells: c-Raf: Sf9 insect cell lysate; MEK1 and MAPK: E. coli
Protocol: (Specific Activity: ~200U/ml). Human Non-active Mek-1-GST and human GST-MAP kinase (recombinant proteins produced in E. coli).
• 1. Assay Dilution Buffer (ADB): 20mM MOPS, pH 7.2, 25mM β-glycerol phosphate, 5mM EGTA, 1mM sodium orthovanadate, 1mM dithiothreitol. • 2. Magnesium/ATP Cocktail: 500µM cold ATP and 75 mM magnesium chloride in ADB. • 4. Active Kinase: Human Active c-Raf: Use at 0.4U per assay point • 5. Non-active GST-MEK1: Use at 0.1µg per assay point. • 6. Non-active GST-p42 MAP Kinase: Use at 1.0 µg per assay point
• 1. TBST - Tris (50 mM, pH 7.5), NaCl (150 mM), Tween-20 (0.05 %) • 2. Superblock (Pierce) • 3. Anti-GST Ab (Pharmacia) • 4. Anti-Phospho MAPK (Sigma) • 5. Anti-Mouse Ab / Europium conjugate (Wallac)
First Stage: c-Raf Dependent Activation of GST-MEK and GST-MAPK • 1. Add […] of ADB per assay (i.e. per well of a 96 well plate) • 2. Add 10 ml of 0.5 mM cold ATP and 75 mM magnesium chloride in ADB. • 3. Add 2 ml of c-Raf (0.4U/assay), in conjunction with 1.6ml non-active MEK1 ([…]). • 4. Add 4 ml of non-active GST-p42 MAP Kinase (1.0 mg/assay). • 5. Incubate for 60 minutes at 30°C in a shaking incubator. • 6. Transfer this mixture to an anti-GST Ab coated 96 well plate (Nunc Immunosorb plates coated o/n with a-GST, then blocked with Pierce Superblock). • 7. Incubate for 60 minutes at 30°C in a shaking incubator Wash 3X with TBST, add Anti-Phospho MAPK (Sigma) (1:3000) • 6. Incubate for 60 minutes at 30°C in a shaking incubator • 7. Wash 3X with TBST, add Anti-Mouse Ab / Europium conjugate (Wallac) (1:500) • 8. Incubate for 60 minutes at 30°C in a shaking incubator • 9. Wash 3X with TBST, Read plates in Wallac Victor model Plate Reader. • 10. Collect data analyze in Excel for single point and IC50 determinations.
Typically Raf-1 assay is run at compound concentrations from 10 µM to 1 nM in half log dilutions. (% inhibition is determined for each compound concentration).

[2] = biological target: T2, Kinase insert Domain containing Receptor (KDR; the catalytic domain of the VEGF receptor) (Homo sapiens, UniProt P35968); experiment: Inhibition of Kinase insert Domain containing Receptor (KDR); format: biochemical; settings: read-out: KDR %Inh (10 µM)
T2 construct: KDR; the catalytic domain of the VEGF receptor
Protocol: KDR protein is mixed, in the presence or absence of a inhibitor compound, with a substrate peptide to be phosphorylated (a copolymer of glutamic acid and tyrosine, E:Y :: 4:1) and other cofactors such as Mg^++ and sodium vanadate (a protein tyrosine phosphatase inhibitor) in an appropriate buffer to maintain pH (7.2). ATP and a radioactive tracer (either P^32- or P^33-labeled ATP) is then added to initiate phosphorylation. After incubation, the radioactive phosphate associated with the acid-insoluble fraction of the test procedure mixture is then quantified as reflection of substrate phosphorylation.

p60^c-src (Src) = biological target: T3, p60^c-src (Src) (Homo sapiens, UniProt P12931); experiment: Src kinase test procedure (Elisa format); format: biochemical; settings: dose 10 µM; read-out: Src %Inh
T3 construct: purchased Upstate Biotechnologies
Protocol: Inhibitors of p60^c-src (partially purified preparation purchased from Upstate Biotechnologies) tyrosine kinase activity are analyzed in an Elisa format. […] HRP-conjugated anti-phosphotyrosine is used to detect phosphorylated peptide via a color reaction. Conditions recommended by the manufacturer are employed.
Reaction conditions: Five microliter aliquots of each compound prepared fresh at the time of the assay are added as a solution in 10mM HEPES pH 7.5, 10% DMSO to the reaction well. Thirty-five microliters of reaction mix containing Src, buffer and peptide/bovine serum albumin mix are added to the compound wells and incubated at 30°C for 10 minutes (reaction buffer: 50mM TrisHCl pH 7.5, 10mM MgCl2, 0.1mM EGTA, 0.5mM Na3VO4). The reaction is started by addition of 10 microliters of ATP, incubated at 30°C for 1 hour, and stopped by addition of 20 microliters of 0.5M EDTA. The reaction mixture with the phosphorylated peptide is then transferred to a streptavidin-coated microtiter plate (provided in the kit) and allowed to bind for 20 minutes. Unbound peptide and reaction mixture is decanted and the plate is washed with PBS six times. Horseradish peroxidase-conjugated phosphotyrosine antibody supplied in the kit is incubated with the plate for one hour, then decanted. The plate is again washed with PBS six times.

LnCAP = experiment: Cell based screen for inhibitors of Raf kinase, quantitative assay; settings: Homo sapiens
[3] = test system: human adenocarcinoma cell line CaCo-2; experiment: as above; settings: Caco-2, 96 h, four days incubation
Protocol: (§1) • Cell Lines: Human adenocarcinoma cell line LoVo which is known to be growth inhibited by low nM concentrations of a reference standard inhibitor of Ras and human adenocarcinoma cell line CaCo-2, which is known to be growth resistant to the same reference compound. • Cell Media : RPMI 1640 with 10% Fetal Bovine Serum supplemented with L-glutamine and Pennicilin/Streptomycin. • Compounds: Supplied usually as a 10 mM stock in 100% DMSO. • Normal Saline: 150 mM NaCl • Trichloroacetic Acid (TCA): 50% (w/v) in water • Sulforhodamine B (SRB): 0.4% (w/v) in 1% Acetic Acid • Tris Base: 10 mM in water
(§2) Cells are plated at 2000 cells per well for cell line LoVo and 1500 cells for cell line CaCo-2 in 96 well plates. Cells are plated in media (200 µl) and allowed to adhere overnight at 37°C. At 24 hours post plating, compounds are added directly at a volume of 0.5 µl. For the qualitative screen (compounds screened at 25 µM) compound is added directly to cells. For the quantitative screen, compound is first diluted in DMSO to generate concentrations of compound or reference standard of: 1, 5, 10 and 25 µM. It is advisable to make the dilutions in an identical 96 well plate so that compounds can be added using a multichannel micropipettor set at 0.5 µl. The cells are then incubated for four days after which the media is removed using a 12 well manifold by first tipping the plate forward at a 45 degree angle and then inserting the manifold in an upright orientation to prevent the tips of the manifold from disturbing cells at the bottom of the plate. 200 µl of normal saline is then added to each well using an 8 well multichannel pipettor, followed by the careful addition of 50 µl of 50% TCA. The plates are then incubated for 2 hours at 4°C, after which the supernatant is removed using the same technique as above and the plated washed twice with 200 µl water. The plates are then air dried and 50 µl of SRB stock solution is carefully added so that the entire bottom of each well is covered. This again can be used using an 8 well multichannel pipettor. The SRB is incubated with fixed cells for 15 minutes at room temperature after which the SRB is removed with the manifold as described above and the plates washed twice with 350 µl of 1% acetic acid per well each time. The plates are then air dried after which the bound SRB is released from protein by the addition of 200 µl of Tris base. Resolubilizing the SRB is aided by placing the plates on a rotator for 15-30 minutes. The absorbance of each well is determined at 550 or 562 nm using a microtiter plate reader.
(§3) Each compound or dilution thereof is performed in triplicate. Outliers are identified by visual inspection of the data. Each plate should have a "0" control (vehicle only).
(§4) Quantitative Assay: A standard curve is constructed by plotting the concentration of compound against the average absorbance calculated at that concentration. […] Multiple entries for a given compound indicate that it is tested multiple times.

[4] = test system: Human adenocarcinoma cell line LoVo; experiment: as above; settings: 96 h, four days incubation
Protocol: as §1, §2, §3, §4

BxPC3 = experiment: as above; settings: Homo sapiens, BXPC-3

T1 sequence (P04049 whole entry): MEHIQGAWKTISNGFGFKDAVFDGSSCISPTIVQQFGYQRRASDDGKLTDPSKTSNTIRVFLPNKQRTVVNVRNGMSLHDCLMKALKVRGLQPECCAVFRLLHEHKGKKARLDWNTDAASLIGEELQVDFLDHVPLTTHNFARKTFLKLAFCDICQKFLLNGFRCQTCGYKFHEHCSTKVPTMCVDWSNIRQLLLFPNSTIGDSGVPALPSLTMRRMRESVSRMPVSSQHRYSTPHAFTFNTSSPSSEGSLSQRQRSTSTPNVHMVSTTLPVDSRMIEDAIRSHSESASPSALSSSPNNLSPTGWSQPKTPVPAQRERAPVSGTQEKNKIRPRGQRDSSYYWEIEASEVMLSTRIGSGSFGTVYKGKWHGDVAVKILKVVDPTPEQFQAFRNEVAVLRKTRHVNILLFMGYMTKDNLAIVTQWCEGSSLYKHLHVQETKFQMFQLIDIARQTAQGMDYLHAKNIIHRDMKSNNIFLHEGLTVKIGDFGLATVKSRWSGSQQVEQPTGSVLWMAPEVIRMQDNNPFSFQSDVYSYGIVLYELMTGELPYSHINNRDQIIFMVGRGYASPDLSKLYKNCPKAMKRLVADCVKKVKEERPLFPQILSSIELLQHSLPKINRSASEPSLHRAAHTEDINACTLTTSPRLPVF
T2 sequence (P35968 834-1162 limits assumed): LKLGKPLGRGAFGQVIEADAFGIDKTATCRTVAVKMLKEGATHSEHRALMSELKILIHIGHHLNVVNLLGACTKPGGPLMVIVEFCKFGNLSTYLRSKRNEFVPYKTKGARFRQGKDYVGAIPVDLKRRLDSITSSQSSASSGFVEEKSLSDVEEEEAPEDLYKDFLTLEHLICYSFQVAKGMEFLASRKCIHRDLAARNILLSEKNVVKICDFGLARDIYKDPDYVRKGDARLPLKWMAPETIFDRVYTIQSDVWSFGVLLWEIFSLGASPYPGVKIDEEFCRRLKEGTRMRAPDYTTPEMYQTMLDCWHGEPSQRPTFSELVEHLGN
T3 sequence (P12931 whole entry): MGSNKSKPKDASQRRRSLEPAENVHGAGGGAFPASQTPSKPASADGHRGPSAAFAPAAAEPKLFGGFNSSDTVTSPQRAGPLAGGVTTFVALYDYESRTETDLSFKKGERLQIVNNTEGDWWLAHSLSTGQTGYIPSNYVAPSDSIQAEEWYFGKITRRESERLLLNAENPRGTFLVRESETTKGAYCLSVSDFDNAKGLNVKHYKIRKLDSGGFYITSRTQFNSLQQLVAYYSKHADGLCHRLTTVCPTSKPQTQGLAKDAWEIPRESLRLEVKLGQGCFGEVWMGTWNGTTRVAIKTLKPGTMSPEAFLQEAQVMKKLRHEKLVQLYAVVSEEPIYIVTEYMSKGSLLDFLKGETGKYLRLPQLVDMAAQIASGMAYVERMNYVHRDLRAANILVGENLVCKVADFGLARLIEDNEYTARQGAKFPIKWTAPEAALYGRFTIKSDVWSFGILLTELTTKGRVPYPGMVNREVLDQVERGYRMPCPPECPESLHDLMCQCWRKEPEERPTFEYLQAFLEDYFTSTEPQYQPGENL

SMILES	IC50 (Raf-1 (c-Raf))	IC50 (LnCAP)	IC50 [3]	IC50 [4]	IC50 (BxPC3)	inhibition at 10 µM (HT-29 cells)	also measured
N#Cc1cnc2c(c1Nc1ccc(Cl)cc1Br)C=C1N=CN=C1C2 [Example 38, 8-(2-Bromo-4-chlorophenylamino)imidazo[4,5-g]quinoline-7-carbonitrile]						25%	inhibition at 10 µM [1]: 0%
COc1cc(Nc2c(C#N)cnc3c2C=C2N=CN=C2C3)c(Br)cc1Cl [Example 39, 8-(2-Bromo-4-chloro-5-methoxyphenylamino)imidazo[4,5-g]quinoline-7-carbonitrile]	900 nM					35%	inhibition at 10 µM [1]: 25%
COc1ccc(Cl)c(Nc2c(C#N)cnc3c2C=C2N=CN=C2C3)c1 [Example 40, 8-(2-Chloro-5-methoxy-phenylamino)imidazo[4,5-g]quinoline-7-carbonitrile]	700 nM					10%	inhibition at 10 µM [1]: 0%
COc1cc(Nc2c(C#N)cnc3c2C=C2N=CN=C2C3)cc(OC)c1OC [Example 42, 8-(3,4,5-Trimethoxyanilino)imidazo[4,5-g]quinoline-7-carbonitrile]						0%	inhibition at 0.22 µM ([1]; @ dose 0.22 µM): 50%
Cc1ccc(Nc2c(C#N)cnc3c2sc2ccccc23)cc1O [Example 70, 4-(3-Hydroxy-4-methylphenylamino)benzo[4,5]thieno[3,2-b]pyridine-3-carbonitrile]							inhibition at 10 µM [2]: 22%
Cc1ccc(Nc2c(C#N)cnc3c2oc2ccccc23)cc1O [Example 87, 4-(3-Hydroxy-4-methylphenylamino)benzo[4,5]furo[3,2-b]pyridine-3-carbonitrile]							inhibition at 10 µM [2]: 32%; inhibition at 10 µM (p60^c-src (Src)): 0%

More lines, main results first:

IC50 (Raf-1 (c-Raf))	IC50 (LnCAP)	IC50 [3]	IC50 [4]	IC50 (BxPC3)	SMILES	inhibition at 10 µM (HT-29 cells)	also measured
4 nM	53 nM	900 nM	6 nM	37 nM	COc1cc2cc3c(Nc4ccc(Sc5nccn5C)c(Cl)c4)c(C#N)cnc3cc2cc1OCCN1CCOCC1 [Example 149, 4-[3-Chloro-4-(1-methyl-1H-imidazol-2-ylsulfanyl)phenylamino]-7-methoxy-8-(2-morpholin-4-yl-ethoxy)benzo[g]quinoline-3-carbonitrile]		
7 nM	12 nM	700 nM	8.5 nM	40 nM	COc1cc2cc3c(Nc4ccc(Sc5nccn5C)c(Cl)c4)c(C#N)cnc3cc2cc1OCCCN1CCOCC1 [Example 151, 4-[3-Chloro-4-(1-methyl-1H-imidazol-2-ylsulfanyl)phenylamino]-7-methoxy-8-(3-morpholin-4-yl-propoxy)benzo[g]quinoline-3-carbonitrile]		
8 nM	32 nM	> 1000 nM	29 nM	40 nM	COc1cc2cc3c(Nc4ccc(Sc5nccn5C)c(Cl)c4)c(C#N)cnc3cc2cc1OCCN1CCN(C)CC1 [Example 152]		
12 nM	19 nM	> 1000 nM	9.4 nM	38 nM	COc1cc2cc3c(Nc4ccc(Sc5nccn5C)c(Cl)c4)c(C#N)cnc3cc2cc1OCCn1nccn1 [Example 153, 4-[3-chloro-4-(1-methyl-1H-imidazol-2-ylsulfanyl)phenylamino]-7-methoxy-8-(2-[1,2,3]triazol-2-yl-ethoxy)benzo[g]quinoline-3-carbonitrile]		
8 nM		> 1000 nM	43 nM	40 nM	COc1cc2cc3c(Nc4ccc(Sc5nccn5C)c(Cl)c4)c(C#N)cnc3cc2cc1OCCn1ccnn1 [Example 154, 4-[3-Chloro-4-(1-methyl-1H-imidazol-2-ylsulfanyl)phenylamino]-7-methoxy-8-(2-[1,2,3]triazol-1-yl-ethoxy)benzo[g]quinoline-3-carbonitrile]		
